Experimental data reported in patent US20130123357A1, “Methods for Providing Enhanced Resveratrol Activity Using 4-Acetoxy-Resveratrol” (BRIGHAM YOUNG UNIVERSITY, priority 2010, published 2013).
Marks after values point to notes of the source that are not given here.

How the values were obtained:
Laminin 1B = assay: Gene array qPCR, human dermal equivalent: Laminin 1B; type: cell-based; conditions: 1.0% 4AR in DMSO, human skin equivalent, 24 hours, mRNA by qPCR
Excerpt: (§1) In this gene array experiment, we examined the ability of 4AR at a one percent concentration in DMSO (where 100% DMSO served as the vehicle) to either stimulate or inhibit several important genes and quantify directly the transcribed messenger RNA (mRNA) levels by Taqman real time PCR. The test material was placed onto a biological barrier (human dermal equivalent) using a MatTek “ready-to-use” in vitro organotypic tissue equivalent, based on well-documented and validated protocols, using the EpiDerm™ Model EPI-200 Kit. The MatTek kits uses normal (non-transformed) donated human cells as the basis for all of its tissue equivalents. These cells are grown (cultured) in standard Millipore Millicell™ Single Well Tissue Culture Plate Inserts at the air liquid interface or ALI. Apical (top) surface of tissue is exposed to air allowing for direct application of test articles. […] Once the 4 AR test material penetrated the human skin barrier equivalent the gene chip was activated and subsequently mRNA levels were quantified and the results represent stimulation or inhibition of a specific gene.
(§2) To investigate the effects of 4AR on the expression of genes associated with the extracellular matrix (ECM) of the skin, qPCR experiments were conducted using the tissue cultures (model system described above) with subsequent quantification of mRNA levels from […] tissue/cells. […]

Type IV collagen alpha 2 = assay: Gene array qPCR, human dermal equivalent: Type IV collagen alpha 2; type: cell-based; conditions: 1.0% 4AR in DMSO, human skin equivalent, 24 hours, mRNA by qPCR
Excerpt: as §1, §2

[1] = Shelf-life stability of the synthesized material; type: physicochemical
Excerpt: The synthetic method described above uses a direct, efficient synthesis at a low cost, and results in improved stability (longer shelf life) where it remains a white crystalline material for over 2 years, as well as higher biological activity (increase absorption, lower dose and longer half-life) with various cosmetic, nutraceuticals (nutritional supplements) and pharmaceutical applications, including (a) anti-aging, anti-oxidant, (b) anti-inflammatory, (c) anti-cancer, (d) neuroprotection (for improved brain health), (e) cardiovascular health, (f) prostate health and (g) skin health, as described below in the following examples.

COX 2 (PTGS2) = assay: Gene array qPCR, human dermal equivalent: COX 2; type: cell-based; conditions: 1.0% 4AR in DMSO, human skin equivalent, 24 hours, mRNA by qPCR
Excerpt: as §1, §2

Desmoglein 3 = assay: Gene array qPCR, human dermal equivalent: Desmoglein 3; type: cell-based; conditions: 1.0% 4AR in DMSO, human skin equivalent, 24 hours, mRNA by qPCR
Excerpt: as §1, §2

IL-1a (interleukin 1a) = assay: Gene array qPCR, human dermal equivalent: IL-1a; type: cell-based; conditions: 1.0% 4AR in DMSO, human skin equivalent, 24 hours, mRNA by qPCR
Excerpt: as §1, §2

[2] = system: S100 Calcium binding protein A8; assay: Gene array qPCR, human dermal equivalent: S100 A8; type: cell-based; conditions: 1.0% 4AR in DMSO, human skin equivalent, 24 hours, mRNA by qPCR
Excerpt: as §1, §2

Protein Kinase C alpha = assay: Gene array qPCR, human dermal equivalent: Protein Kinase C alpha; type: cell-based; conditions: 1.0% 4AR in DMSO, human skin equivalent, 24 hours, mRNA by qPCR
Excerpt: as §1, §2

lysyl oxidase (LOX) = assay: Gene array qPCR, human dermal equivalent: LOX; type: cell-based; conditions: 1.0% 4AR in DMSO, human skin equivalent, 24 hours, mRNA by qPCR
Excerpt: as §1, §2

IL-6 (interleukin 6) = assay: Gene array qPCR, human dermal equivalent: IL-6; type: cell-based; conditions: 1.0% 4AR in DMSO, human skin equivalent, 24 hours, mRNA by qPCR
Excerpt: as §1, §2

[3] = system: Superoxide dismutase 2, mitochondrial; assay: Gene array qPCR, human dermal equivalent: SOD2; type: cell-based; conditions: 1.0% 4AR in DMSO, human skin equivalent, 24 hours, mRNA by qPCR
Excerpt: as §1, §2

[4] = system: Tissue Inhibitor of metalloproteinases 2 (TIMP2); assay: Gene array qPCR, human dermal equivalent: TIMP2; type: cell-based; conditions: 1.0% 4AR in DMSO, human skin equivalent, 24 hours, mRNA by qPCR
Excerpt: as §1, §2

[5] = system: TGF (transforming growth factor) beta; assay: Gene array qPCR, human dermal equivalent: TGF beta; type: cell-based; conditions: 1.0% 4AR in DMSO, human skin equivalent, 24 hours, mRNA by qPCR
Excerpt: as §1, §2

[6] = system: human dermal monolayer fibroblasts; assay: Collagen deposition by ELISA for Human Type I collagen C-terminal propeptide; type: cell-based; conditions: approximately 9 μM, 48 hours, vehicle 0.1% DMSO
Protocol: 4′-Acetoxy-resveratrol was tested to determine whether it can stimulate collagen deposition in human monolayer dermal fibroblasts in the following examples. In this assay, we first determined the toxicity of the test materials (untreated cells, positive control-ascorbate, vehicle=0.1% DMSO, and a range of the 4′-acetoxy-resveratrol molecule, from approximately 10 nM to 10 μM).
The human dermal monolayer fibroblasts were exposed to the test materials for approximately 48 hours. Thereafter, the samples were processed for MTT and collagen deposition, etc.
Collagen deposition by ELISA for Human Type I collagen C-terminal propeptide was determined. Dermal fibroblasts synthesize primarily type I collagen, and the cleavage of the C-terminal propeptide is required for deposition into fibrils within the extracellular matrix. […] The amount of cleaved propeptide is directly proportional to the amount of type I collagen deposited, and can be precisely quantified using purified standards and a commercial ELISA kit (Takara Mirus, Inc., Cat. # TAK-MK-101). After 48 hours in the presence of the test materials or controls, culture medium supernatants were removed and immediately analyzed using the ELISA kit according to manufacturer's instructions using a Molecular Devices Vmax plate 96 well plate reader and SoftMax software. […]

Metallothionein 2 = assay: Gene array qPCR, human dermal equivalent: Metallothionein 2; type: cell-based; conditions: 1.0% 4AR in DMSO, human skin equivalent, 24 hours, mRNA by qPCR
Excerpt: as §1, §2

[7] = target: T1, prostate type I 5α-reductase enzyme (Rattus norvegicus, UniProt P24008); assay: Prostate 5α-reductase enzyme activity of treated rats; type: in vivo; conditions: DMSO controls 8.7 + 0.6
T1 construct: from tissue; host or cells: prostate of adult male Long-Evans rats dosed with 4AR for 21 days
T1 sequence (P24008 1-259): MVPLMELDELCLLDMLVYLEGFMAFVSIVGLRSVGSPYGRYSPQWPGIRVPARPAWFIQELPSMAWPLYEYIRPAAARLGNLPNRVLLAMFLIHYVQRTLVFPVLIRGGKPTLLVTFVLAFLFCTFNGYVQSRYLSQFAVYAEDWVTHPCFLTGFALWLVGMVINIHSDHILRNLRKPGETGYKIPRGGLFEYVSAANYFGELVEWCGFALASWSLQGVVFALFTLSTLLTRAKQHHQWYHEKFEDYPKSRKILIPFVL
Protocol: Adult male Long-Evans rats were administered 4AR for 21 days. DMSO served as the control and 4AR was dissolved into DMSO at the following concentrations: 5.0 mg/kg body weight, 20.0 mg/kg body weight and 90.0 mg/kg body weight (n=12 per group).
Since, the 5a-reductase enzyme (which converts testosterone to 5a-dihydrotestosterone) is important in prostate health in reference to benign prostatic hyperplasia (BPH) and the treatment and prevention of prostate cancer, we determined if prostate type I 5α-reductase enzyme activity was impacted by these treatments by quantifying the enzymatic rates of each animal as described above (in this study there were approximately 10 animals per treatment group).

IL-8 (interleukin 8) = assay: Gene array qPCR, human dermal equivalent: IL-8; type: cell-based; conditions: 1.0% 4AR in DMSO, human skin equivalent, 24 hours, mRNA by qPCR
Excerpt: as §1, §2

[8] = system: IL-1RII (interleukin 1RII); assay: Gene array qPCR, human dermal equivalent: IL-1RII; type: cell-based; conditions: 1.0% 4AR in DMSO, human skin equivalent, 24 hours, mRNA by qPCR
Excerpt: as §1, §2

[9] = system: Superoxide dismutase 1, soluble; assay: Gene array qPCR, human dermal equivalent: SOD1; type: cell-based; conditions: 1.0% 4AR in DMSO, human skin equivalent, 24 hours, mRNA by qPCR
Excerpt: as §1, §2

Cytokeratin 2E = assay: Gene array qPCR, human dermal equivalent: Cytokeratin 2E; type: cell-based; conditions: 1.0% 4AR in DMSO, human skin equivalent, 24 hours, mRNA by qPCR
Excerpt: as §1, §2

SIRT1 (Sirtuin 1) = assay: Gene array qPCR, human dermal equivalent: SIRT1; type: cell-based; conditions: 1.0% 4AR in DMSO, human skin equivalent, 24 hours
Excerpt: as §1, §2

Fibrillin = assay: Gene array qPCR, human dermal equivalent: Fibrillin; type: cell-based; conditions: 1.0% 4AR in DMSO, human skin equivalent, 24 hours, mRNA by qPCR
Excerpt: as §1, §2

Structure (SMILES): CC(=O)Oc1ccc(C=Cc2cc(O)cc(O)c2)cc1 [4AR, 3,5-dihydroxy-4′-acetoxy stilbene]
- Laminin 1B increased by (Laminin 1B): 1.4-fold with
- IV collagen alpha 2 increased by (Type IV collagen alpha 2): 1.8-fold
- stability (shelf life): remains a white crystalline material [1]: over 2 years
- COX 2 decreased by (COX 2 (PTGS2)): 1.7-fold
- Desmoglein 3 decreased by (Desmoglein 3): by 1.9-fold
- IL-1a decreased by (IL-1a (interleukin 1a)): 10.1-fold
- S100 Calcium binding protein A8 decreased by [2]: 2.7-fold
- Protein Kinase C alpha increased by (Protein Kinase C alpha): 2.7-fold
- Lysyl oxidase increased by (lysyl oxidase (LOX)): 1.9-fold
- IL-6 decreased by (IL-6 (interleukin 6)): 35.2-fold
- Superoxide dismutase 2, mitochondrial increased by [3]: 1.7-fold
- TIMP2 increased by [4]: 1.3-fold
- TGF beta increased by [5]: 2.0-fold
- increase of collagen deposition compared to vehicle control [6]: 65%
- Metallothionein 2 increased by (Metallothionein 2): 3.4-fold
- 5α-reductase enzyme activity ([7]; 5 mg/kg body weight): 4.6 + 0.4* pmol/hour incubation/mg of protein
- 5α-reductase enzyme activity ([7]; 20 mg/kg body weight): 3.3 + 0.3* pmol/hour incubation/mg of protein
- 5α-reductase enzyme activity ([7]; 90 mg/kg body weight): 2.0 + 0.2* pmol/hour incubation/mg of protein
- IL-8 decreased by (IL-8 (interleukin 8)): 3.8-fold
- IL-1RII decreased by [8]: 1.9-fold
- Superoxide dismutase 1, soluble increased by [9]: 1.6-fold
- CK 2E decreased by (Cytokeratin 2E): 3.5-fold with
- SIRT1 mRNA expression increased by (SIRT1 (Sirtuin 1)): 3.3-fold
- Fibrillin increased by (Fibrillin): 1.3-fold with
